# Source: PubChem BioAssay (NCI)
# “And” between values parts separate entries of the source, which are not always exact repeats. Equal values may be shown once.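 Cultured in 96-well plates, cells were exposed to test compound for 48 hours across five concentrations. At the GI50, growth is halved. TGI: concentration producing complete growth inhibition.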
# Key:
# Assay in all cases: NCI-60 cell line screen, 48 h
# 786-0 renal = system: 786-0 renal
# A498 renal = system: A498 renal
# A549 NSCLC = system: A549 NSCLC
# ACHN renal = system: ACHN renal
# BT-549 breast = system: BT-549 breast
# CAKI-1 renal = system: CAKI-1 renal
# CCRF-CEM leukemia = system: CCRF-CEM leukemia
# COLO 205 colon = system: COLO 205 colon
# DU-145 prostate = system: DU-145 prostate
# EKVX NSCLC = system: EKVX NSCLC
# HCC-2998 colon = system: HCC-2998 colon
# HCT-116 colon = system: HCT-116 colon
# HCT-15 colon = system: HCT-15 colon
# HL-60(TB) leukemia = system: HL-60(TB) leukemia
# HOP-62 NSCLC = system: HOP-62 NSCLC
# HOP-92 NSCLC = system: HOP-92 NSCLC
# HS 578T breast = system: HS 578T breast
# HT29 colon = system: HT29 colon
# IGROV1 ovarian = system: IGROV1 ovarian
# K-562 leukemia = system: K-562 leukemia
# KM12 colon = system: KM12 colon
# LOX IMVI melanoma = system: LOX IMVI melanoma
# M14 melanoma = system: M14 melanoma
# MALME-3M melanoma = system: MALME-3M melanoma
# MCF7 breast = system: MCF7 breast
# MDA-MB-231 breast = system: MDA-MB-231 breast
# MDA-MB-435 = system: MDA-MB-435
# MOLT-4 leukemia = system: MOLT-4 leukemia
# NCI-H226 lung = system: NCI-H226 lung
# NCI-H23 lung = system: NCI-H23 lung
# NCI-H460 lung = system: NCI-H460 lung
# NCI-H522 lung = system: NCI-H522 lung
# NCI/ADR-RES ovarian = system: NCI/ADR-RES ovarian
# OVCAR-3 ovarian = system: OVCAR-3 ovarian
# OVCAR-4 ovarian = system: OVCAR-4 ovarian
# OVCAR-5 ovarian = system: OVCAR-5 ovarian
# OVCAR-8 ovarian = system: OVCAR-8 ovarian
# PC-3 prostate = system: PC-3 prostate
# RPMI-8226 leukemia = system: RPMI-8226 leukemia
# RXF 393 renal = system: RXF 393 renal
# SF-268 CNS = system: SF-268 CNS
# SF-295 CNS = system: SF-295 CNS
# SF-539 CNS = system: SF-539 CNS
# SK-MEL-2 melanoma = system: SK-MEL-2 melanoma
# SK-MEL-28 melanoma = system: SK-MEL-28 melanoma
# SK-MEL-5 melanoma = system: SK-MEL-5 melanoma
# SK-OV-3 ovarian = system: SK-OV-3 ovarian
# SN12C renal = system: SN12C renal
# SNB-19 CNS = system: SNB-19 CNS
# SNB-75 CNS = system: SNB-75 CNS
# SR leukemia = system: SR leukemia
# SW-620 colon = system: SW-620 colon
# T-47D breast = system: T-47D breast
# TK-10 renal = system: TK-10 renal
# U251 CNS = system: U251 CNS
# UACC-257 melanoma = system: UACC-257 melanoma
# UACC-62 melanoma = system: UACC-62 melanoma
# UO-31 renal = system: UO-31 renal
compound,measurement,setting,value
CC(C)C[C@@H](NC(=O)[C@@H](Cc1ccccc1)NC(=O)c1cnccn1)B1O[C@H]2[C@H](O)[C@@H](C(=O)NCCCC[C@@H]3NC(=O)[C@@H](Cc4ccccc4)NC(=O)[C@H](CC(=O)O)NC(=O)CNC(=O)[C@H](CCCN=C(N)N)NC3=O)O[C@@H](CN)[C@H]2O1,GI50,786-0 renal,4.65 nM and 5 nM
same,GI50,A498 renal,3.09 nM and 5 nM
same,TGI,A498 renal,12.7 nM and 10.6 nM
same,GI50,A549 NSCLC,28.8 nM and 14.8 nM
same,TGI,A549 NSCLC,658 nM
same,GI50,ACHN renal,4.49 nM and 5 nM
same,TGI,ACHN renal,494 nM and 153 nM
same,GI50,BT-549 breast,3 nM and 5 nM
same,TGI,BT-549 breast,11.2 nM and 11.3 nM
same,GI50,CAKI-1 renal,7.68 nM and 14.8 nM
same,TGI,CAKI-1 renal,52.5 nM and 90.5 nM
same,GI50,CCRF-CEM leukemia,3.47 nM and 5 nM
same,GI50,COLO 205 colon,26.2 nM and 5 nM
same,TGI,COLO 205 colon,373 nM and 119 nM
same,GI50,DU-145 prostate,6.62 nM and 5 nM
same,TGI,DU-145 prostate,5360 nM
same,GI50,EKVX NSCLC,23.9 nM and 17.1 nM
same,TGI,EKVX NSCLC,568 nM and 545 nM
same,GI50,HCC-2998 colon,16 nM and 7.99 nM
same,TGI,HCC-2998 colon,32.3 nM and 16.5 nM
same,GI50,HCT-116 colon,3.39 nM and 5 nM
same,TGI,HCT-116 colon,18.2 nM and 10.3 nM
same,GI50,HCT-15 colon,11.3 nM and 7.03 nM
same,TGI,HCT-15 colon,65.9 nM and 37.6 nM
same,GI50,HL-60(TB) leukemia,10.2 nM and 5 nM
same,TGI,HL-60(TB) leukemia,69.8 nM and 74.3 nM
same,GI50,HOP-62 NSCLC,12.5 nM and 18.9 nM
same,GI50,HOP-92 NSCLC,10.8 nM and 5.48 nM
same,TGI,HOP-92 NSCLC,56.5 nM and 23.6 nM
same,GI50,HS 578T breast,4.13 nM and 5 nM
same,GI50,HT29 colon,4.18 nM and 5 nM
same,TGI,HT29 colon,32.5 nM and 7.63 nM
same,GI50,IGROV1 ovarian,31.2 nM and 21.4 nM
same,TGI,IGROV1 ovarian,254 nM and 1030 nM
same,GI50,K-562 leukemia,8.8 nM and 5 nM
same,GI50,KM12 colon,13.1 nM and 5.7 nM
same,TGI,KM12 colon,43.7 nM and 17.7 nM
same,GI50,LOX IMVI melanoma,3.97 nM and 5 nM
same,TGI,LOX IMVI melanoma,15.9 nM and 5.8 nM
same,GI50,M14 melanoma,3.92 nM and 5 nM
same,TGI,M14 melanoma,116 nM and 14.1 nM
same,GI50,MALME-3M melanoma,4.57 nM and 5 nM
same,TGI,MALME-3M melanoma,127 nM and 591 nM
same,GI50,MCF7 breast,4.13 nM and 5 nM
same,TGI,MCF7 breast,789 nM
same,GI50,MDA-MB-231 breast,12.4 nM and 8.28 nM
same,TGI,MDA-MB-231 breast,57.4 nM and 69.2 nM
same,GI50,MDA-MB-435,2.87 nM and < 5 nM
same,TGI,MDA-MB-435,8.91 nM and < 5 nM
same,GI50,MOLT-4 leukemia,2.74 nM
same,TGI,MOLT-4 leukemia,9.31 nM
same,GI50,NCI-H226 lung,2.78 nM
same,TGI,NCI-H226 lung,7.7 nM
same,GI50,NCI-H23 lung,10.8 nM and 5 nM
same,TGI,NCI-H23 lung,94.3 nM and 53.7 nM
same,GI50,NCI-H460 lung,34.4 nM and 17.9 nM
same,TGI,NCI-H460 lung,135 nM and 185 nM
same,GI50,NCI-H522 lung,3.3 nM and < 5 nM
same,TGI,NCI-H522 lung,11.5 nM and < 5 nM
same,GI50,NCI/ADR-RES ovarian,98.4 nM and 84.4 nM
same,TGI,NCI/ADR-RES ovarian,586 nM
same,GI50,OVCAR-3 ovarian,3.39 nM and 5 nM
same,TGI,OVCAR-3 ovarian,10.6 nM and 10.4 nM
same,GI50,OVCAR-4 ovarian,9.35 nM and 5 nM
same,TGI,OVCAR-4 ovarian,451 nM and 1090 nM
same,GI50,OVCAR-5 ovarian,13.5 nM and 19.6 nM
same,TGI,OVCAR-5 ovarian,97.8 nM and 799 nM
same,GI50,OVCAR-8 ovarian,36.5 nM and 13.9 nM
same,TGI,OVCAR-8 ovarian,622 nM and 98.7 nM
same,GI50,PC-3 prostate,27.3 nM and 15.3 nM
same,TGI,PC-3 prostate,389 nM and 563 nM
same,GI50,RPMI-8226 leukemia,3.73 nM and 5 nM
same,TGI,RPMI-8226 leukemia,267 nM and 1040 nM
same,GI50,RXF 393 renal,3.45 nM and < 5 nM
same,TGI,RXF 393 renal,13.5 nM and < 5 nM
same,GI50,SF-268 CNS,8.77 nM and 5.35 nM
same,TGI,SF-268 CNS,38.7 nM and 57.4 nM
same,GI50,SF-295 CNS,4.86 nM and 5 nM
same,TGI,SF-295 CNS,20 nM and 14.7 nM
same,GI50,SF-539 CNS,3.19 nM and 5 nM
same,TGI,SF-539 CNS,15 nM and 12.3 nM
same,GI50,SK-MEL-2 melanoma,7.02 nM and 5 nM
same,TGI,SK-MEL-2 melanoma,60.4 nM and 12.3 nM
same,GI50,SK-MEL-28 melanoma,7.66 nM and 5 nM
same,TGI,SK-MEL-28 melanoma,285 nM and 235 nM
same,GI50,SK-MEL-5 melanoma,4.57 nM and 5 nM
same,TGI,SK-MEL-5 melanoma,18.8 nM and 8.55 nM
same,GI50,SK-OV-3 ovarian,35.4 nM and 14.8 nM
same,TGI,SK-OV-3 ovarian,296 nM and 941 nM
same,GI50,SN12C renal,11.7 nM and 13 nM
same,TGI,SN12C renal,55 nM and 485 nM
same,GI50,SNB-19 CNS,13.6 nM and 5 nM
same,TGI,SNB-19 CNS,5120 nM
same,GI50,SNB-75 CNS,18.8 nM
same,TGI,SNB-75 CNS,51.6 nM
same,GI50,SR leukemia,2.61 nM
same,GI50,SW-620 colon,4.54 nM and 5 nM
same,TGI,SW-620 colon,239 nM and 652 nM
same,GI50,T-47D breast,5.98 nM and 5 nM
same,TGI,T-47D breast,64.8 nM and 25 nM
same,GI50,TK-10 renal,3.08 nM and 5 nM
same,TGI,TK-10 renal,24.9 nM and 8.51 nM
same,GI50,U251 CNS,32.8 nM and 5.92 nM
same,TGI,U251 CNS,218 nM and 43.1 nM
same,GI50,UACC-257 melanoma,13.5 nM and 5 nM
same,TGI,UACC-257 melanoma,81.2 nM and 18.3 nM
same,GI50,UACC-62 melanoma,4.39 nM and 5 nM
same,TGI,UACC-62 melanoma,40.8 nM and 14 nM
same,GI50,UO-31 renal,8.68 nM and 5 nM
same,TGI,UO-31 renal,89 nM and 36 nM
Cc1ccc(Nc2nc(=S)[nH]c3[nH]ncc23)cc1,TGI,786-0 renal,> 100000 nM
same,TGI,A498 renal,> 100000 nM
same,TGI,A549 NSCLC,> 100000 nM
same,TGI,ACHN renal,> 100000 nM
same,TGI,BT-549 breast,> 100000 nM
same,TGI,CAKI-1 renal,> 100000 nM
same,TGI,CCRF-CEM leukemia,> 100000 nM
same,TGI,COLO 205 colon,> 100000 nM
same,TGI,DU-145 prostate,> 100000 nM
same,TGI,EKVX NSCLC,> 100000 nM
same,TGI,HCC-2998 colon,> 100000 nM
same,TGI,HCT-116 colon,> 100000 nM
same,TGI,HCT-15 colon,> 100000 nM
same,TGI,HL-60(TB) leukemia,> 100000 nM
same,TGI,HOP-62 NSCLC,> 100000 nM
same,TGI,HOP-92 NSCLC,> 100000 nM
same,TGI,HS 578T breast,> 100000 nM
same,TGI,HT29 colon,> 100000 nM
same,TGI,IGROV1 ovarian,> 100000 nM
same,TGI,K-562 leukemia,> 100000 nM
same,TGI,KM12 colon,> 100000 nM
same,TGI,LOX IMVI melanoma,> 100000 nM
same,TGI,M14 melanoma,> 100000 nM
same,TGI,MALME-3M melanoma,> 100000 nM
same,TGI,MCF7 breast,> 100000 nM
same,TGI,MDA-MB-231 breast,> 100000 nM
same,TGI,MDA-MB-435,> 100000 nM
same,TGI,MOLT-4 leukemia,> 100000 nM
same,TGI,NCI-H226 lung,> 100000 nM
same,TGI,NCI-H23 lung,> 100000 nM
same,TGI,NCI-H460 lung,> 100000 nM
same,TGI,NCI-H522 lung,> 100000 nM
same,TGI,NCI/ADR-RES ovarian,> 100000 nM
same,TGI,OVCAR-3 ovarian,> 100000 nM
same,TGI,OVCAR-4 ovarian,> 100000 nM
same,TGI,OVCAR-5 ovarian,> 100000 nM
same,TGI,OVCAR-8 ovarian,> 100000 nM
same,TGI,PC-3 prostate,> 100000 nM
same,TGI,RPMI-8226 leukemia,> 100000 nM
same,TGI,RXF 393 renal,> 100000 nM
same,TGI,SF-268 CNS,> 100000 nM
same,TGI,SF-295 CNS,> 100000 nM
same,TGI,SF-539 CNS,> 100000 nM
same,TGI,SK-MEL-2 melanoma,> 100000 nM
same,TGI,SK-MEL-28 melanoma,> 100000 nM
same,TGI,SK-MEL-5 melanoma,> 100000 nM
same,TGI,SK-OV-3 ovarian,> 100000 nM
same,TGI,SN12C renal,> 100000 nM
same,TGI,SNB-19 CNS,> 100000 nM
same,TGI,SNB-75 CNS,> 100000 nM
same,TGI,SR leukemia,> 100000 nM
same,TGI,SW-620 colon,> 100000 nM
same,TGI,T-47D breast,> 100000 nM
same,TGI,TK-10 renal,> 100000 nM
same,TGI,U251 CNS,> 100000 nM
same,TGI,UACC-257 melanoma,> 100000 nM
same,TGI,UACC-62 melanoma,> 100000 nM
same,TGI,UO-31 renal,> 100000 nM
